Assay results taken from ChEMBL document CHEMBL3351354, “From the covalent linkage of drugs to novel inhibitors of ribonucleotide reductase: synthesis and biological evaluation of valproic esters of 3'-C-methyladenosine” (Bioorg Med Chem Lett, 2014).
One block for each compound: values may come before it. Activity calls are given as the source filed them. The calls are words filed in the database; no cut-off is given here.

Assays:
HL-60 [1] = experiment: Induction of cell cycle arrest in human HL60 cells assessed as accumulation at G1 phase at 0.5 mM after 24 hrs by propidium iodide staining based flow cytometry (reference value: 32%); assay type: functional
HL-60 [2] = experiment: Induction of cell cycle arrest in human HL60 cells assessed as accumulation at S phase at 0.5 mM after 24 hrs by propidium iodide staining based flow cytometry (reference value: 54%); assay type: functional
HL-60 [3] = experiment: Induction of cell cycle arrest in human HL60 cells assessed as accumulation at G2M phase at 0.5 mM after 24 hrs by propidium iodide staining based flow cytometry (reference value: 12%); assay type: functional
[4] = Cytotoxicity against human HL60 cells after 24 to 48 hrs by trypan blue dye exclusion method; assay type: functional, cell-based; details: HL-60
HL-60 [5] = experiment: Induction of apoptosis in human HL60 cells after 24 to 48 hrs by acridine orange and ethidium bromide staining based fluorescence microscopy; assay type: functional, cell-based; details: Homo sapiens, HL-60; read-out: AC50
HL-60 [6] = experiment: Cytotoxicity against human HL60 cells at 20 to 100 uM after 24 to 48 hrs in presence of 2 mM VPA by trypan blue dye exclusion method; assay type: functional, cell-based
HL-60 [7] = experiment: Cytotoxicity against human HL60 cells at 20 to 100 uM after 24 to 48 hrs in presence of 1 mM VPA by trypan blue dye exclusion method; assay type: functional, cell-based
HL-60 [8] = experiment: Induction of apoptosis in human HL60 cells at 20 uM in presence of 2 mM VPA after 24 to 48 hrs by acridine orange and ethidium bromide staining based fluorescence microscopy; assay type: functional
HL-60 [9] = experiment: Induction of apoptosis in human HL60 cells at 20 uM in presence of 1 mM VPA after 24 to 48 hrs by acridine orange and ethidium bromide staining based fluorescence microscopy; assay type: functional, cell-based
[10] = Growth inhibition of human HL60 cells after 48 hrs by MTT assay; assay type: functional, cell-based, HL-60; details: Homo sapiens, HL-60, 48 h; read-out: IC50
K562 = experiment: Growth inhibition of human K562 cells after 48 hrs by MTT assay; assay type: functional, cell-based; details: Homo sapiens, K562, 48 h; read-out: IC50
HuT78 = experiment: Growth inhibition of human HUT78 cells after 48 hrs by MTT assay; assay type: functional, cell-based; details: Homo sapiens, HuT78, 48 h; read-out: IC50
HT-29 = experiment: Growth inhibition of human HT-29 cells after 48 hrs by MTT assay; assay type: functional, cell-based; details: Homo sapiens, HT-29, 48 h; read-out: IC50
MCF7 = experiment: Growth inhibition of human MCF7 cells after 48 hrs by MTT assay; assay type: functional, cell-based; details: Homo sapiens, MCF7, 48 h; read-out: IC50
HeLa = experiment: Growth inhibition of human HeLa cells after 48 hrs by MTT assay; assay type: functional, cell-based; details: Homo sapiens, HeLa, 48 h; read-out: IC50
[11] = Growth inhibition of human Caco2 cells after 48 hrs by MTT assay; assay type: functional, cell-based, Caco-2; details: Homo sapiens, Caco-2, 48 h; read-out: IC50
HL-60 [12] = experiment: Induction of cell cycle arrest in human HL60 cells assessed as accumulation at G1 phase at 20 uM after 24 hrs by propidium iodide staining based flow cytometry (reference value: 32%); assay type: functional
HL-60 [13] = experiment: Induction of cell cycle arrest in human HL60 cells assessed as accumulation at S phase at 20 uM after 24 hrs by propidium iodide staining based flow cytometry (reference value: 54%); assay type: functional
HL-60 [14] = experiment: Induction of cell cycle arrest in human HL60 cells assessed as accumulation at G2M phase at 20 uM after 24 hrs by propidium iodide staining based flow cytometry (reference value: 12%); assay type: functional
HL-60 [15] = experiment: Induction of cell cycle arrest in human HL60 cells assessed as accumulation at G1 phase at 20 uM in presence of 2 mM VPA after 24 hrs by propidium iodide staining based flow cytometry (reference value: 32%); assay type: functional
HL-60 [16] = experiment: Induction of cell cycle arrest in human HL60 cells assessed as accumulation at S phase at 20 uM in presence of 2 mM VPA after 24 hrs by propidium iodide staining based flow cytometry (reference value: 54%); assay type: functional
HL-60 [17] = experiment: Induction of cell cycle arrest in human HL60 cells assessed as accumulation at G2M phase at 20 uM in presence of 2 mM VPA after 24 hrs by propidium iodide staining based flow cytometry (reference value: 12%); assay type: functional
[18] = Half life in RPMI-1640 medium containing 10% fetal calf serum assessed as compound disappearance by HPLC-DAD-ESI-MS method; assay type: ADME, Bos taurus; details: cattle
[19] = molecular target: T1, Histone deacetylase (Homo sapiens) (UniProt Q13547+O15379+Q9UBN7+Q92769+Q9UQL6+Q8WUI4+Q9BY41+Q96DB2+P56524+Q9UKV0+Q969S8); experiment: Inhibition of HDAC in human HL60 cells assessed as increase in histone H3 acetylation at 10 and 100 uM after 24 hrs by Western blotting method; assay type: cell-based; details: HL-60
HL-60 [20] = experiment: Induction of cell cycle arrest in human HL60 cells assessed as accumulation at G1 phase at 50 uM after 24 hrs by propidium iodide staining based flow cytometry (reference value: 32%); assay type: functional
HL-60 [21] = experiment: Induction of cell cycle arrest in human HL60 cells assessed as accumulation at S phase at 50 uM after 24 hrs by propidium iodide staining based flow cytometry (reference value: 54%); assay type: functional
HL-60 [22] = experiment: Induction of cell cycle arrest in human HL60 cells assessed as accumulation at G2M phase at 50 uM after 24 hrs by propidium iodide staining based flow cytometry (reference value: 12%); assay type: functional
[23] = molecular target: T1, Histone deacetylase (Homo sapiens); experiment: Inhibition of HDAC in human HL60 cells assessed as increase in p21 expression at 50 uM after 24 hrs by flow cytometry; assay type: cell-based; details: HL-60
HL-60 [24] = experiment: Induction of ROS generation in human HL60 cells at 2 and 5 mM after 24 hrs by DCFH-DA staining based flow cytometry; assay type: functional, cell-based
[25] = Half life in pH 7.4 isotonic sodium phosphate buffer at 37 degC by HPLC-DAD-ESI-MS method; assay type: physicochemical
[26] = molecular target: T2, Ribonucleotide reductase (Homo sapiens) (UniProt P23921+Q7LG56); experiment: Inhibition of ribonucleotide reductase in human HL60 cells assessed as intracellular dNTP pools level at 50 uM after 1 hr by HPLC method; assay type: cell-based; details: HL-60
[27] = molecular target: T2, Ribonucleotide reductase (Homo sapiens); experiment: Inhibition of human recombinant ribonucleotide reductase at 0.1 mM; assay type: protein-complex assay

SMILES: NC(=O)NO [HYDROXYUREA]
- Activity (HL-60 [1]): 86%
- Activity (HL-60 [2]): 7%
- Activity (HL-60 [3]): 7%

- IC50 (K562): 9.4 µM
- IC50 (HT-29): 26.1 µM
- IC50 (MCF7): 22.4 µM
- IC50 (HeLa): 23.3 µM
- half-life [18]: 2610 min
SMILES: C[C@@]1(O)[C@@H](CO)O[C@@H](n2cnc3c(N)ncnc32)[C@@H]1O
- IC50 [4]: 15 µM
- AC50 (HL-60 [5]): 75 µM
- Activity (HL-60 [6]): Active
- Activity (HL-60 [7]): inactive
- Activity (HL-60 [8]): 90%
- Activity (HL-60 [9]): Active
- IC50 [10]: 15.6 µM
- IC50 (HuT78): 17.3 µM
- IC50 [11]: 24.3 µM
- Activity (HL-60 [12]): 31%
- Activity (HL-60 [13]): 60%
- Activity (HL-60 [14]): 9%
- Activity (HL-60 [15]): 28%
- Activity (HL-60 [16]): 61%
- Activity (HL-60 [17]): 11%

- IC50 (K562): 51.9 µM
- IC50 (HT-29): 54.6 µM
- IC50 (MCF7): 57.8 µM
- IC50 (HeLa): 54.4 µM
- inhibition [19]: inactive
- inhibition [23]: inactive
- half-life [25]: > 3 days
- half-life [18]: > 4320 min
- inhibition [26]: inactive
- inhibition [27]: inactive
SMILES: CCCC(CCC)C(=O)OC[C@H]1O[C@@H](n2cnc3c(N)ncnc32)[C@H](OC(=O)C(CCC)CCC)[C@]1(C)O
- AC50 (HL-60 [5]): 140 µM
- IC50 [10]: 16.3 µM
- IC50 (HuT78): 30 µM
- IC50 [11]: 55.1 µM
- Activity (HL-60 [20]): 71%
- Activity (HL-60 [21]): 29%
- Activity (HL-60 [22]): 0%
- Activity (HL-60 [24]): inactive
